These results are taken from patent publication US9850245B2 (Merck Sharp & Dohme Corp., priority 2014, dated 2017).

The target of one test is ROMK (Homo sapiens (Human), UniProt P48048). The experiment in a line: Thallium Flux Assay. The format is cell-based. The method, then:
A Thallium Flux Assay was performed on the compounds of the Examples. This assay has been described previously; see, e.g., PCT Published Application WO 2013/062900.

In a further test the target is Kir1.1 (ROMK1) (Homo sapiens (Human), UniProt P48048). The experiment in a line: Electrophysiology Assay (whole cell voltage clamp, IonWorks Quattro). The format is cell-based. The conditions noted are these: Chinese hamster ovary cells stably expressing Kir1.1; fractional block at voltage step to 0 mV; 6 min compound incubation. The method, then: Blocking of Kir1.1 (ROMK1) currents was examined by whole cell voltage clamp (Hamill et. al. Pfluegers Archives 391:85-100 (1981)) using the IonWorks Quattro automated electrophysiology platform (Molecular Devices, Sunnyvale, Calif.). Chinese hamster ovary cells stably expressing Kir1.1 channels were maintained in T-75 flasks in cell culture media in a humidified 10% CO2 incubator at 37° C. Prior to an experiment, Kir1.1 expression was induced by overnight incubation with 1 mM sodium butyrate. On the day of the experiment, cells were dissociated with 2.5 mL of Versene (Invitrogen 15040-066), a non-enzymatic cell dissociation reagent, for approximately 6 min at 37° C. and suspended in 10 mL of bath solution containing (in mM): 150 NaCl, 10 KCl, 2.7 CaCl2, 0.5 MgCl2, and 5 HEPES, at pH 7.4. After centrifugation, the cell pellet was resuspended in approximately 4.0 mL of bath solution and placed in the IonWorks instrument. The intracellular solution consisted of (in mM): 80 K gluconate, 40 KCl, 20 KF, 3.2 MgCl2, 3 EGTA, and 5 Hepes, at pH 7.4. Electrical access to the cytoplasm was achieved by perforation in 0.13 mg/mL amphotericin B for 4 min. Amphotericin B (Sigma A-4888) was prepared as a 40 mg/mL solution in DMSO.
Kir1.1 (ROMK1), sequence (P48048 whole entry): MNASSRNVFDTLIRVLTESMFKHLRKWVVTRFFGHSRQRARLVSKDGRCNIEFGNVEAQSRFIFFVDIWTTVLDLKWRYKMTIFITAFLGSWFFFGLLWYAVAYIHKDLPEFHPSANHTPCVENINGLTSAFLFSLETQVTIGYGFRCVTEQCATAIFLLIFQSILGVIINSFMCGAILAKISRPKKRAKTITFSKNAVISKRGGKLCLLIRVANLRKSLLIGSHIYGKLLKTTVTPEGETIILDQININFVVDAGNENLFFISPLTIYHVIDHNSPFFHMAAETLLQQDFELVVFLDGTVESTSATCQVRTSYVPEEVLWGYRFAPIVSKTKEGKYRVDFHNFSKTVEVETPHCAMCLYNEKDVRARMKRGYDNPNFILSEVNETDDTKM
Voltage protocols and current recordings were performed using the IonWorks HT software/hardware system. Currents were sampled at 1 kHz. There was no correction for liquid junction potentials. The test pulse, consisting of a 100 ms (millisecond) step to 0 mV (millivolts) from a holding potential of −70 mV, followed by a 100 ms voltage ramp from −70 mV to +70 mV, was applied before and after a 6 min compound incubation period. Test compounds were prepared by diluting DMSO stock solutions into the bath solution at 3× the final concentration and placed in the instrument in 96-well polypropylene plates. Current amplitudes were measured using the IonWorks software. To assess compound potency, the fractional block during the voltage step to 0 mV was calculated in Microsoft Excel (Microsoft, Redmond, Calif.), and dose-response curves were fitted with Igor Pro 4.0 (WaveMetrics, Lake Oswego, Oreg.).

ROMK, sequence (P48048 whole entry): as above

Broadly, the IC50 is the concentration that inhibits the measured activity by half. A high value points to weaker potency. Regarding `O=C1C=C(N2CCOC3(CCN(C[C@H](O)c4ccc(-n5cnnn5)nc4)CC3)C2)CO1` [Example 19A, (R)-4-(9-(2-(6-(1H-tetrazol-1-yl)pyridin-3-yl)-2-hydroxyethyl)-1-oxa-4,9-diazaspiro[5.5]undecan-4-yl)furan-2(5H)-one], the IC50 against ROMK turned out to be 0.0806 µM; at Kir1.1 (ROMK1), 0.056 µM.
For `CC1=C(N2CCOC3(CCN(CC(O)c4cnc(-n5cnnn5)nc4)CC3)C2=O)COC1=O` (single isomer, unassigned) [Example 46A, 9-(2-(2-(1H-tetrazol-1-yl)pyrimidin-5-yl)-2-hydroxyethyl)-4-(4-methyl-5-oxo-2,5-dihydrofuran-3-yl)-1-oxa-4,9-diazaspiro[5.5]undecan-5-one], in that order: 0.056 µM and 0.051 µM.
For `CC1=C(N2CCOC3(CCN(CC(O)c4ccc(-n5cnnn5)nc4C)CC3)C2)COC1=O` (single isomer, unassigned) [Example 22A, 4-(9-(2-hydroxy-2-(2-methyl-6-(1H-tetrazol-1-yl)pyridin-3-yl)ethyl)-1-oxa-4,9-diazaspiro[5.5]undecan-4-yl)-3-methylfuran-2(5H)-one], in that order: 0.034 µM and 0.011 µM.
On the same counts, the results for `CC1=C(N2CCN(C)C3(CCN(C[C@H](O)c4ccc5c(c4C)COC5=O)CC3)C2=O)COC1=O` [Example 34, (R)-9-(2-hydroxy-2-(4-methyl-1-oxo-1,3-dihydroisobenzofuran-5-yl)ethyl)-1-methyl-4-(4-methyl-5-oxo-2,5-dihydrofuran-3-yl)-1,4,9-triazaspiro[5.5]undecan-5-one] are 0.0423 µM and 0.027 µM.
As to `CC1=C(N2CCOC3(CCN(C[C@H](O)c4ccc5c(c4C)COC5=O)CC3)C2)COC1=O` [Example 21, (R)-5-(1-hydroxy-2-(4-(4-methyl-5-oxo-2,5-dihydrofuran-3-yl)-1-oxa-4,9-diazaspiro[5.5]undecan-9-yl)ethyl)-4-methylisobenzofuran-1(3H)-one], the IC50 on ROMK is 0.171 µM; against Kir1.1 (ROMK1), 0.077 µM.
On the same counts, the results for `CC1=C(N2CCOC3(CCN(C[C@@H](O)c4ccc(-n5cnnn5)nc4)CC3)C2=O)COC1=O` [Example 6B, (S)-9-(2-(6-(1H-tetrazol-1-yl)pyridin-3-yl)-2-hydroxyethyl)-4-(4-methyl-5-oxo-2,5-dihydrofuran-3-yl)-1-oxa-4,9-diazaspiro[5.5]undecan-5-one] are 0.0121 µM and 0.0038 µM.
